Test results published in PubChem BioAssay (NCI).
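Compound exposure: 48 hours, 5 concentrations, 96-well plates. GI50 marks 50% less growth. TGI: total growth inhibition.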

How the values were obtained:
Test in all cases: growth of human tumour cells (NCI), 48 h
COLO 205 colon = test system: COLO 205 colon
PC-3 prostate = test system: PC-3 prostate
IGROV1 ovarian = test system: IGROV1 ovarian
OVCAR-5 ovarian = test system: OVCAR-5 ovarian
RXF 393 renal = test system: RXF 393 renal
SN12C renal = test system: SN12C renal
MALME-3M melanoma = test system: MALME-3M melanoma
SK-OV-3 ovarian = test system: SK-OV-3 ovarian
NCI/ADR-RES ovarian = test system: NCI/ADR-RES ovarian
TK-10 renal = test system: TK-10 renal

| SMILES | TGI (COLO 205 colon) | TGI (PC-3 prostate) | TGI (IGROV1 ovarian) | TGI (OVCAR-5 ovarian) | TGI (RXF 393 renal) | TGI (SN12C renal) | TGI (MALME-3M melanoma) | TGI (SK-OV-3 ovarian) | TGI (NCI/ADR-RES ovarian) | TGI (TK-10 renal) | GI50 (COLO 205 colon) | GI50 (PC-3 prostate) | GI50 (IGROV1 ovarian) | GI50 (OVCAR-5 ovarian) | GI50 (RXF 393 renal) | GI50 (SN12C renal) | GI50 (MALME-3M melanoma) | GI50 (NCI/ADR-RES ovarian) | GI50 (TK-10 renal) | GI50 (SK-OV-3 ovarian) |
| --- | --- | --- | --- | --- | --- | --- | --- | --- | --- | --- | --- | --- | --- | --- | --- | --- | --- | --- | --- | --- |
| O=C1c2ccccc2-c2ccc(N(Cc3ccc(Br)cc3)Cc3ccc(Br)cc3)cc21 | > 100 µM | > 100 µM | > 100 µM | > 100 µM | > 100 µM | > 100 µM | > 100 µM | > 100 µM | > 100 µM | > 100 µM |  |  |  |  |  |  |  |  |  |  |
| COc1ccc(C2C(Cl)C(=O)N2NC(=O)c2ccc(NC(C)=O)cc2)cc1OC (stereo not given) | > 100 µM |  | > 100 µM | > 100 µM |  |  | > 100 µM | > 100 µM |  | > 100 µM |  |  |  |  |  |  |  |  |  |  |
| CSc1nc(NC2OC(CO)C(O)C(O)C2O)c(N)c(=O)n1C (stereo not given) | > 100 µM |  | > 100 µM | > 100 µM | > 100 µM | > 100 µM | > 100 µM | > 100 µM | > 100 µM |  |  |  |  |  |  |  |  |  |  |  |
| O=C(Nc1ccc(-n2cc(-c3ccncc3)c(-c3ccc(O)c(Cl)c3)n2)cc1)c1ccc(Cl)c(Cl)c1 | > 32.5 µM | > 32.5 µM | > 32.5 µM | > 32.5 µM | 1.1 µM | > 32.5 µM | > 32.5 µM |  | > 32.5 µM | > 32.5 µM | > 32.5 µM | 1.35 µM | > 32.5 µM | > 32.5 µM | 0.49 µM | 2.95 µM | 2.47 µM | 2.02 µM | 1.52 µM |  |
| CCCCCCCCCCCCCCCc1ccc(C(=O)C[n+]2ccccc2)cc1 | 1.67 µM | 3.77 µM |  |  |  | 2.13 µM | 4.95 µM | 3.34 µM |  | 2.72 µM | 0.475 µM | 1.23 µM |  |  |  | 0.756 µM | 1.75 µM |  | 1.12 µM | 1.71 µM |
| CCN(CC)CCSc1nc2c([N+](=O)[O-])cccc2[nH]1 | > 100 µM |  | > 100 µM |  | > 100 µM | > 100 µM |  | > 100 µM |  | > 100 µM |  |  |  |  |  |  |  |  |  |  |
| N=C(N)c1ccc(-c2ccc(-c3ccccc3)o2)cc1 | 3.42 µM | 5.97 µM | 4.5 µM | 6.95 µM |  | 7.61 µM | 3.12 µM | 10.2 µM | 5.85 µM | 3.73 µM | 1.66 µM | 2.28 µM | 2 µM | 2.11 µM |  | 2.72 µM | 1.55 µM | 2.2 µM | 1.89 µM | 2.89 µM |
| Nc1cccc2cc(S(=O)(=O)Nc3ccc(C(=O)O)cc3)ccc12 | > 100 µM | > 100 µM | > 100 µM | > 100 µM | > 100 µM | > 100 µM | > 100 µM | > 100 µM | > 100 µM | > 100 µM |  |  |  |  |  |  |  |  |  |  |
| O=C(c1no[n+]([O-])c1C(=O)c1csc2ccccc12)c1csc2ccccc12 | 9 µM | 8.33 µM | 5.69 µM | 35.4 µM | 19.4 µM | 12.1 µM | 13.5 µM | 33 µM | 56.3 µM | 4.9 µM |  |  |  |  |  |  |  |  |  |  |
| CNC1=C(C)C(=O)C2=C(C1=O)C(COC(N)=O)C1(OC)C3NC3CN21 (stereo not given) | 1.35 µM | 41.8 µM | 91.2 µM | 50.2 µM |  |  | 3.61 µM | 36.5 µM |  | 94.1 µM |  |  |  |  |  |  |  |  |  |  |
| Cc1ccc(CCCC(=O)O)cc1C |  | > 100 µM | > 100 µM | > 100 µM | > 100 µM | > 100 µM | > 100 µM |  | > 100 µM | > 100 µM |  |  |  |  |  |  |  |  |  |  |
| CC(C)=CCC/C(C)=C/CC/C(C)=C/C(O)c1ccccc1 (stereo not given) | 35.6 µM |  | 37.2 µM | 32.5 µM |  | 33.9 µM | 34.5 µM | 36.5 µM |  | 88.4 µM |  |  |  |  |  |  |  |  |  |  |
